Measurements taken from US6043217A, “Amide derivative of amythiamicin” (Zaidan Hojin Biseibutsu Kagaku Kenyu Kai, priority 1996, dated 2000).

Key:
Type in all cases: cell-based
[1] = system: Bacillus subtilis NRRL B-558; assay: MIC, standard serial dilution method; conditions: Muller-Hinton agar medium, 37° C.
[2] = system: Staphylococcus aureus TY-0428; assay: MIC, standard serial dilution method; conditions: Muller-Hinton agar medium, 37° C.
[3] = system: Shigella dysenteria JS 11910; assay: MIC, standard serial dilution method; conditions: Muller-Hinton agar medium, 37° C.
[4] = system: Escherichia coli BE 1186; assay: MIC, standard serial dilution method; conditions: Muller-Hinton agar medium, 37° C.
[5] = system: Escherichia coli K-12 ML 1692; assay: MIC, standard serial dilution method; conditions: Muller-Hinton agar medium, 37° C.
Description: (§1) The antibacterial activities of the amythiamicin amide derivative of the general formula (I) according to this invention are now concretely described. Compounds No. 1 to No. 11 according to this invention, which were respectively prepared in Examples 1 to 11 hereinafter given, were tested as the test compounds for their minimum inhibitory concentrations (MIC.) (μg/ml) against growth of a variety of test microorganisms by a standard serial dilution method. In the tests, the incubation medium used was Muller-Hinton agar medium and the incubation temperature was 37° C. The test results are shown as antibacterial spectra in the following Tables 2 and 3.

[6] = system: Shigella clexnerl JS 11749; assay: MIC, standard serial dilution method; conditions: Muller-Hinton agar medium, 37° C.
Description: as §1

[7] = system: Shigella sonnei JS 11746; assay: MIC, standard serial dilution method; conditions: Muller-Hinton agar medium, 37° C.
Description: as §1

[8] = system: Escherichia coli BEM 11; assay: MIC, standard serial dilution method; conditions: Muller-Hinton agar medium, 37° C.
[9] = system: Klebsiella pneumonia PCI 602; assay: MIC, standard serial dilution method; conditions: Klebsiella pneumonia PCI 602 (Table 2); Muller-Hinton agar medium, 37° C.
[10] = system: Candida albicans 3147; assay: MIC, standard serial dilution method; conditions: Muller-Hinton agar medium, 37° C.
[11] = system: Serratia marcescens; assay: MIC, standard serial dilution method; conditions: Muller-Hinton agar medium, 37° C.
[12] = system: Staphylococcus aureus Smith; assay: MIC, standard serial dilution method; conditions: Muller-Hinton agar medium, 37° C.
[13] = system: Pseudomonas aeruginosa GN315; assay: MIC, standard serial dilution method; conditions: Muller-Hinton agar medium, 37° C.
[14] = system: Proteus vulgaris OX 19; assay: MIC, standard serial dilution method; conditions: Muller-Hinton agar medium, 37° C.
[15] = system: Proteus mirabilis IFM OM-9; assay: MIC, standard serial dilution method; conditions: Muller-Hinton agar medium, 37° C.
[16] = system: Staphylococcus aureus No. 17 (MRSA); assay: MIC, standard serial dilution method; conditions: Muller-Hinton agar medium, 37° C.
[17] = system: Providencia rettgeri GN 466; assay: MIC, standard serial dilution method; conditions: Muller-Hinton agar medium, 37° C.
[18] = system: Staphylococcus aureus No. 5 (MRSA); assay: MIC, standard serial dilution method; conditions: Muller-Hinton agar medium, 37° C.
[19] = system: Micrococcus luteus PIC 1001; assay: MIC, standard serial dilution method; conditions: Muller-Hinton agar medium, 37° C.
[20] = system: Bacillus subtilis PCI 219; assay: MIC, standard serial dilution method; conditions: Muller-Hinton agar medium, 37° C.
[21] = system: Pseudomonas aeruginosa A3; assay: MIC, standard serial dilution method; conditions: Muller-Hinton agar medium, 37° C.
[22] = system: Bacillus cereus ATCC 10702; assay: MIC, standard serial dilution method; conditions: Muller-Hinton agar medium, 37° C.
[23] = system: Providencia rettgeri GN 311; assay: MIC, standard serial dilution method; conditions: Muller-Hinton agar medium, 37° C.
[24] = system: Micrococcus luteus FDA 16; assay: MIC, standard serial dilution method; conditions: Muller-Hinton agar medium, 37° C.
[25] = system: Escherichia coli BEM 1121; assay: MIC, standard serial dilution method; conditions: Muller-Hinton agar medium, 37° C.
[26] = system: Micrococcus luteus IFO 3333; assay: MIC, standard serial dilution method; conditions: Muller-Hinton agar medium, 37° C.
[27] = system: Salmonella enteritidis 1891; assay: MIC, standard serial dilution method; conditions: Muller-Hinton agar medium, 37° C.
[28] = system: Salmonella typhi T-63; assay: MIC, standard serial dilution method; conditions: Muller-Hinton agar medium, 37° C.
[29] = system: Staphylococcus aureus MS 16526; assay: MIC, standard serial dilution method; conditions: Muller-Hinton agar medium, 37° C.
[30] = system: Bacillus anthracis; conditions: Muller-Hinton agar medium, 37° C.
[31] = system: Staphylococcus aureus FDA 209P; assay: MIC, standard serial dilution method; conditions: Muller-Hinton agar medium, 37° C.
[32] = system: Escherichia coli K-12; assay: MIC, standard serial dilution method; conditions: Muller-Hinton agar medium, 37° C.
[33] = system: Escherichia coli NIHJ; assay: MIC, standard serial dilution method; conditions: Muller-Hinton agar medium, 37° C.
[34] = system: Corynebacterium bovis 1810; assay: MIC, standard serial dilution method; conditions: Muller-Hinton agar medium, 37° C.
[35] = system: Staphylococcus aureus MS 9610; assay: MIC, standard serial dilution method; conditions: Muller-Hinton agar medium, 37° C.

CNC(=O)CC1NC(=O)c2csc(n2)-c2ccc(-c3nc(C(=O)NCCCCCC(=O)OC)cs3)nc2-c2csc(n2)-c2csc(n2)C(C(C)C)NC(=O)CNC(=O)c2csc(n2)C(C(C)C)NC(=O)c2nc1sc2C (centres unmarked) [Compound No. 1]
Minimum growth inhibitory concentrations (MIC.) [1]: > 100 µg/mL | Minimum growth inhibitory concentrations (MIC.) [2]: > 100 µg/mL | Minimum growth inhibitory concentrations (MIC.) [3]: > 100 µg/mL | Minimum growth inhibitory concentrations (MIC.) [4]: > 100 µg/mL | Minimum growth inhibitory concentrations (MIC.) [5]: > 100 µg/mL | Minimum growth inhibitory concentrations (MIC.) [6]: > 100 µg/mL | Minimum growth inhibitory concentrations (MIC.) [7]: > 100 µg/mL | Minimum growth inhibitory concentrations (MIC.) [8]: > 100 µg/mL | Minimum growth inhibitory concentrations (MIC.) [9]: > 100 µg/mL | Minimum growth inhibitory concentrations (MIC.) [10]: > 100 µg/mL | Minimum growth inhibitory concentrations (MIC.) [11]: > 100 µg/mL | Minimum growth inhibitory concentrations (MIC.) [12]: > 100 µg/mL | Minimum growth inhibitory concentrations (MIC.) [13]: > 100 µg/mL | Minimum growth inhibitory concentrations (MIC.) [14]: > 100 µg/mL | Minimum growth inhibitory concentrations (MIC.) [15]: > 100 µg/mL | Minimum growth inhibitory concentrations (MIC.) [16]: > 100 µg/mL | Minimum growth inhibitory concentrations (MIC.) [17]: > 100 µg/mL | Minimum growth inhibitory concentrations (MIC.) [18]: > 100 µg/mL | Minimum growth inhibitory concentrations (MIC.) [19]: 3.13 µg/mL | Minimum growth inhibitory concentrations (MIC.) [20]: > 100 µg/mL | Minimum growth inhibitory concentrations (MIC.) [21]: > 50 µg/mL | Minimum growth inhibitory concentrations (MIC.) [22]: 3.13 µg/mL | Minimum growth inhibitory concentrations (MIC.) [23]: > 100 µg/mL | Minimum growth inhibitory concentrations (MIC.) [24]: > 100 µg/mL | Minimum growth inhibitory concentrations (MIC.) [25]: > 100 µg/mL | Minimum growth inhibitory concentrations (MIC.) [26]: > 100 µg/mL | Minimum growth inhibitory concentrations (MIC.) [27]: > 100 µg/mL | Minimum growth inhibitory concentrations (MIC.) [28]: > 100 µg/mL | Minimum growth inhibitory concentrations (MIC.) [29]: > 100 µg/mL | Minimum growth inhibitory concentrations (MIC.) [30]: 0.98 µg/mL | Minimum growth inhibitory concentrations (MIC.) [31]: 50 µg/mL | Minimum growth inhibitory concentrations (MIC.) [32]: > 100 µg/mL | Minimum growth inhibitory concentrations (MIC.) [33]: > 100 µg/mL | Minimum growth inhibitory concentrations (MIC.) [34]: > 100 µg/mL | Minimum growth inhibitory concentrations (MIC.) [35]: > 100 µg/mL
